Our source for the IC50 values is patent US8431593B2, “Heteroaryl amide derivatives” (H. Lundbeck A/S, priority 2006, dated 2013).

This assay has as its target T1, P2X7 receptor (Homo sapiens, UniProt Q99572).
T1 construct: host or cells: SH-SY5Y
T1 sequence (Q99572 1-595): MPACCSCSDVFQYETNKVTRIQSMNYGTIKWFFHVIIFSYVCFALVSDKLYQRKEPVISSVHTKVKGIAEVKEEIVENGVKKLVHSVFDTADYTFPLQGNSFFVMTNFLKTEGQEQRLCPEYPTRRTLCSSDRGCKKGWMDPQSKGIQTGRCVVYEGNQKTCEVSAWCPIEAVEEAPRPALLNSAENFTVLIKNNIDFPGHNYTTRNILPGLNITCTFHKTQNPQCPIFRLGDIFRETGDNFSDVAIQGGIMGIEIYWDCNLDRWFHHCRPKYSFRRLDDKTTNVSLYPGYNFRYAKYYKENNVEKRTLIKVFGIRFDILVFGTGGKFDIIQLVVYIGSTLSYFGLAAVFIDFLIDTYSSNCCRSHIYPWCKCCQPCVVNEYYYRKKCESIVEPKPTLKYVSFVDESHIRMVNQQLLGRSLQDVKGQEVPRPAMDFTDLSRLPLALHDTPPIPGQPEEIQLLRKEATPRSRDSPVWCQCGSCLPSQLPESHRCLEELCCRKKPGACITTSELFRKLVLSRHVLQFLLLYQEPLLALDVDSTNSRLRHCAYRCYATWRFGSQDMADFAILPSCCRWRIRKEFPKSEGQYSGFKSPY
Description: P2X7 calcium mobilization assay, high throughput, antagonist activity (Example 4A). As to conditions: 50% decrease in the fluorescence response of cells exposed to 80 μM 2′(3′)-O-(4-benzoyl-benzoyl)adenosine 5′-triphosphate; Example 4A; read-out: IC50. It counts as cell-based. The gist of the method:
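100,000 cells/well, plated day -1. Dye 1 h → rinse → compound 1 h, RT → FLIPR^TETRA Ca2+ mobilization. Max RFU minus mean negative control (no agonist); mean agonist-well max as positive control.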

Each structure is given as a SMILES string.

For orientation: IC50 means the concentration needed to halve the response being measured. Turning to `CCN(Cc1cn2c(C(=O)NCC34CC5CC(CC(C5)C3)C4)cccc2n1)C(=O)c1ncc[nH]1` [Compound 551, N-(adamantan-1-ylmethyl)-2-{[ethyl(1H-imidazol-2-ylcarbonyl)amino]methyl}imidazo[1,2-a]pyridine-5-carboxamide], the half-maximal inhibitory concentration (IC50) is < 2000 nM.

Turning to `CCN(Cc1cn2c(C(=O)NCC34CC5CC(CC(C5)C3)C4)cccc2n1)C(=O)c1nnc[nH]1` [Compound 552, N-(adamantan-1-ylmethyl)-2-{[ethyl(4H-1,2,4-triazol-3-ylcarbonyl)amino]methyl}imidazo[1,2-a]pyridine-5-carboxamide], the IC50 was < 2000 nM. For `CCN(CCO)Cc1cn2c(C(=O)NCC34CC5CC(CC(C5)C3)C4)cccc2n1` [Compound 553, N-(adamantan-1-ylmethyl)-2-{[ethyl(2-hydroxyethyl)amino]methyl}imidazo[1,2-a]pyridine-5-carboxamide] the value was < 2000 nM; for `O=C(NCC12CC3CC(CC(C3)C1)C2)c1cccc2nc(C[S+]([O-])c3nnc[nH]3)cn12` (stereo not shown) [Compound 554, N-(adamantan-1-ylmethyl)-2-[(4H-1,2,4-triazol-3-ylsulfinyl)methyl]imidazo [1,2-a]pyridine-5-carboxamide], < 2000 nM. The figure for `CC1(C)[C@@H]2CC[C@@H](CNC(=O)c3cccc4nc(CC(=O)N5CCNCC5)cn34)[C@H]1C2` [Compound 555, N-{[(1R,2R,5R)-6,6-dimethylbicyclo[3.1.1]hept-2-yl]methyl}-2-(2-oxo-2-piperazin-1-ylethyl)imidazo[1,2-a]pyridine-5-carboxamide] is < 2000 nM.

With `CC1CNCCN1C(=O)Cc1cn2c(C(=O)NC[C@@H]3CC[C@@H]4C[C@H]3C4(C)C)cccc2n1` (stereo partly drawn) [Compound 556, N-{[(1R,2R,5R)-6,6-dimethylbicyclo[3.1.1]hept-2-yl]methyl}-2-[2-(2-methylpiperazin-1-yl)-2-oxoethyl]imidazo[1,2-a]pyridine-5-carboxamide], the IC50 is < 2000 nM. The figure for `C[C@H]1CNCCN1C(=O)Cc1cn2c(C(=O)NC[C@@H]3CC[C@@H]4C[C@H]3C4(C)C)cccc2n1` [Compound 557, N-{[(1R,2R,5R)-6,6-dimethylbicyclo[3.1.1]hept-2-yl]methyl}-2-{2-[(2S)-2-methylpiperazin-1-yl]-2-oxoethyl}imidazo [1,2-a]pyridine-5-carboxamide] is < 2000 nM; for `CC1(C)[C@@H]2CC[C@@H](CNC(=O)c3cccc4nc(CC(=O)N5C[C@@H]6C[C@H]5CN6)cn34)[C@H]1C2` [Compound 559, 2-{2-[(1S,4S)-2,5-diazabicyclo[2.2.1]hept-2-yl]-2-oxoethyl}-N-{[(1R,2R,5R)-6,6-dimethylbicyclo[3.1.1]hept-2-yl]methyl}imidazo[1,2-a]pyridine-5-carboxamide] it is < 2000 nM; for `CC1(C)[C@@H]2CC[C@@H](CNC(=O)c3cccc4nc(CC(=O)N5CCCNCC5)cn34)[C@H]1C2` [Compound 560, 2-[2-(1,4-diazepan-1-yl)-2-oxoethyl]-N-{[(1R,2R,5R)-6,6-dimethylbicyclo[3.1.1]hept-2-yl]methyl}imidazo[1,2-a]pyridine-5-carboxamide] it is < 2000 nM. As to `C[C@@H]1CNCCN1C(=O)Cc1cn2c(C(=O)NC[C@@H]3CC[C@@H]4C[C@H]3C4(C)C)cccc2n1` [Compound 561, N-{[(1R,2R,5R)-6,6-dimethylbicyclo[3.1.1]hept-2-yl]methyl}-2-{2-[(2R)-2-methylpiperazin-1-yl]-2-oxoethyl}imidazo[1,2-a]pyridine-5-carboxamide], the IC50 is < 2000 nM. Take `CC(C)[C@H]1CN(C(=O)Cc2cn3c(C(=O)NC[C@@H]4CC[C@@H]5C[C@H]4C5(C)C)cccc3n2)CCN1` [Compound 562, N-{[(1R,2R,5R)-6,6-dimethylbicyclo[3.1.1]hept-2-yl]methyl}-2-{2-[(3S)-3-isopropylpiperazin-1-yl]-2-oxoethyl}imidazo[1,2-a]pyridine-5-carboxamide]: the IC50 was < 2000 nM. For `C[C@H]1CN(C(=O)Cc2cn3c(C(=O)NC[C@@H]4CC[C@@H]5C[C@H]4C5(C)C)cccc3n2)CCN1` [Compound 563, N-{[(1R,2R,5R)-6,6-dimethylbicyclo[3.1.1]hept-2-yl]methyl}-2-{2-[(3S)-3-methylpiperazin-1-yl]-2-oxoethyl}imidazo[1,2-a]pyridine-5-carboxamide] the value was < 2000 nM; for `C[C@@H]1CN(C(=O)Cc2cn3c(C(=O)NC[C@@H]4CC[C@@H]5C[C@H]4C5(C)C)cccc3n2)CCN1` [Compound 564, N-{[(1R,2R,5R)-6,6-dimethylbicyclo[3.1.1]hept-2-yl]methyl}-2-{2-[(3R)-3-methylpiperazin-1-yl]-2-oxoethyl}imidazo[1,2-a]pyridine-5-carboxamide], < 2000 nM. The figure for `CN(C(=O)Cc1cn2c(C(=O)NC[C@@H]3CC[C@@H]4C[C@H]3C4(C)C)cccc2n1)C1CCCNC1` (stereo partly drawn) [Compound 565, N-{[(1R,2R,5R)-6,6-dimethylbicyclo[3.1.1]hept-2-yl]methyl}-2-{2-[methyl(piperidin-3-yl)amino]-2-oxoethyl}imidazo[1,2-a]pyridine-5-carboxamide] is < 2000 nM. On to `COCCN(C(=O)Cc1cn2c(C(=O)NC[C@@H]3CC[C@@H]4C[C@H]3C4(C)C)cccc2n1)C1CCNCC1` [Compound 567, N-{[(1R,2R,5R)-6,6-dimethylbicyclo[3.1.1]hept-2-yl]methyl}-2-{2-[(2-methoxyethyl) (piperidin-4-yl)amino]-2-oxoethyl} imidazo[1,2-a]pyridine-5-carboxamide], for which the IC50 is < 2000 nM. The figure for `CNC1CCN(C(=O)Cc2cn3c(C(=O)NC[C@@H]4CC[C@@H]5C[C@H]4C5(C)C)cccc3n2)C1` (stereo partly drawn) [Compound 568, N-{[(1R,2R,5R)-6,6-dimethylbicyclo[3.1.1]hept-2-yl]methyl}-2-{2-[3-(methylamino)pyrrolidin-1-yl]-2-oxoethyl}imidazo[1,2-a]pyridine-5-carboxamide] is < 2000 nM. For `CC(C)[C@H]1CNCCN1C(=O)Cc1cn2c(C(=O)NC[C@@H]3CC[C@@H]4C[C@H]3C4(C)C)cccc2n1` [Compound 569, N-{[(1R,2R,5R)-6,6-dimethylbicyclo[3.1.1]hept-2-yl]methyl}-2-{2-[(2S)-2-isopropylpiperazin-1-yl]-2-oxoethyl}imidazo[1,2-a]pyridine-5-carboxamide] the value was < 2000 nM. For `CC(C)[C@@H]1CNCCN1C(=O)Cc1cn2c(C(=O)NC[C@@H]3CC[C@@H]4C[C@H]3C4(C)C)cccc2n1` [Compound 570, N-{[(1R,2R,5R)-6,6-dimethylbicyclo[3.1.1]hept-2-yl]methyl}-2-{2-[(2R)-2-isopropylpiperazin-1-yl]-2-oxoethyl}imidazo[1,2-a]pyridine-5-carboxamide] the value was < 2000 nM; for `CC(C)[C@@H]1CN(C(=O)Cc2cn3c(C(=O)NC[C@@H]4CC[C@@H]5C[C@H]4C5(C)C)cccc3n2)CCN1` [Compound 571, N-{[(1R,2R,5R)-6,6-dimethylbicyclo[3.1.1]hept-2-yl]methyl}-2-{2-[(3R)-3-isopropylpiperazin-1-yl]-2-oxoethyl}imidazo[1,2-a]pyridine-5-carboxamide], < 2000 nM.
